From PMC5742531, “Bio-Catalytic Structural Transformation of Anti-cancer Steroid, Drostanolone Enanthate with Cephalosporium aphidicola and Fusarium lini, and Cytotoxic Potential Evaluation of Its Metabolites against Certain Cancer Cell Lines” (Frontiers in Pharmacology, 2017)
Like-named read-outs stand apart in the source and are kept apart here.

How the values were obtained:
[1] = test system: HeLa (human cervical carcinoma ATCC CCl-2); experiment: MTT cytotoxicity assay, HeLa cell line; format: cell-based; conditions: 24 h treatment, HeLa cells, read-out: HeLa cell line (Cervical cancer) IC50 ± SD
Description: (§1) The cytotoxicity of samples was measured against HeLa (human cervical carcinoma ATCC CCl-2), PC-3 (human prostate cancer ATCC CRL-1435), NCl-H460 (human lung carcinoma ATCC HTB-177), HCT116 (human colon cancer ATCC CCl-247), and 3T3 (control fibroblast normal ATCC CRL-1658) cell lines by using standard MTT assay. Cell lines were grown in DMEM F12 media, supplemented with 10% FBS under a 5% CO2 atmosphere at 37°C in an incubator.
(§2) The colorimetric assay MTT [3-(4, 5-dimethyl thiazol-2yl)-2, 5-diphenyl tetrazolium bromide] was used for the evaluation of cell metabolic activity. In this assay, the yellow MTT is reduced to purple formazon in the mitochondria of the living cells (Gerlier and Thomasset, [1986]). The more the living cells, the more the color and thus more absorbance is observed by colorimeter (Fesahat et al., [2015]). We have used this method to analyze the effect of our transformed products on cellular cytotoxicity against cancer cells. Around 10,000 cells of each cell line (HeLa, PC3, H460, HCT116 cancers, and 3T3 normal) were seeded in 96-well plates. After reaching 80–90% confluency, they were treated with various concentrations of compounds (25, 50, 75, 100, and 200 μM) for 24 h. All compounds were dissolved in sterile DMSO to make a 200 mM stock solution. The solution was filtered, and serial dilutions were made in growth medium. 600 μL of each dilution was used to treat 3 wells (triplicate of each) of 96 well plate i.e., 200 μL each. Each experiment was performed in three biological replicates. MTT was added, and incubated for 4 h. […] The Multiskan reader gives λmax at 540 nm in DMSO treated 3T3 fibroblast cells (that are more confluent in morphology) whereas in case of cancer cells, 570 nm gives λmax (Bonmati-Carrion et al., [2013]; Danihelová et al., [2013]). A broad range of epithelial carcinoma cell lines were used in this experiment where cisplatin was a common drug of choice. It targets DNA, interferes with cell division during mitosis and induces apoptosis (Eastman, [1999]). IC50 values were calculated to determine the minimum concentration required to kill 50% of the cells.
(§3) % Inhibition=100-(At-Ab)/(Ac-Ab) ×100% Cell survival=(At-Ab)/(Ac-Ab) ×100

[2] = test system: PC-3 (human prostate cancer ATCC CRL-1435); experiment: MTT cytotoxicity assay, PC-3 cell line; format: cell-based; conditions: 24 h treatment, PC3 cells, read-out: PC3 cell line (Prostate cancer) IC50 ± SD
Description: as §1, §2, §3

[3] = test system: NCl-H460 (human lung carcinoma ATCC HTB-177); experiment: MTT cytotoxicity assay, H460 cell line; format: cell-based; conditions: H460 cells, read-out: H460 cell line (Lung cancer) IC50 ± SD
Description: as §1, §2, §3

[4] = test system: HCT116 (human colon cancer ATCC CCl-247); experiment: MTT cytotoxicity assay, HCT116 cell line; format: cell-based; conditions: HCT116 cells, read-out: HCT116 cell line (Colon cancer) IC50 ± SD
Description: as §1, §2, §3

[5] = test system: 3T3 (control fibroblast normal ATCC CRL-1658); experiment: MTT cytotoxicity assay, 3T3 normal cell line; format: cell-based; conditions: 3T3 normal cells, read-out: 3T3 cell line (Mouse fibroblast) IC50 ± SD
Description: as §1, §2, §3

[6] = Homo sapiens, NCI-H460, 24 h treatment
[7] = Homo sapiens, HCT-116, 24 h treatment
[8] = Mus musculus, NIH3T3, 24 h treatment

SMILES	IC50 ([1]; Homo sapiens)	IC50 ([2]; Homo sapiens, PC-3, 24 h)	IC50 [3, 6]	IC50 [4, 7]	IC50 [5, 8]	IC50 [2]	melting point	IC50 [1]	IC50 ([3]; 24 h treatment)	IC50 ([4]; 24 h treatment)	IC50 ([5]; 24 h treatment)
CCCCCCC(=O)OC1CCC2C3CCC4CC(=O)C(C)CC4(C)C3CCC12C (centres unmarked) [Compound 1, drostanolone enanthate]	54.7 ± 1.6 µM	96.2 ± 3 µM	5 ± 1.2 µM	3.1 ± 3.2 µM	> 150 µM	–	–	–	–	–	–
C[C@@H]1C[C@@]2(C)[C@@H](CC[C@@H]3[C@@H]2CC[C@]2(C)[C@@H](O)CC[C@@]32O)C[C@@H]1O [Compound 2, 2α-methyl-3α,14α,17β-trihydroxy-5α-androstane]	64.3 ± 3 µM	84.6 ± 6.4 µM	44.4 ± 2 µM	39.4 ± 2 µM	> 150 µM	–	–	–	–	–	–
C[C@@H]1C[C@@]2(C)[C@H](CC1=O)C[C@@H](O)[C@@H]1[C@@H]2CC[C@]2(C)C(=O)CC[C@@H]12 [Compound 3, 2α-methyl-7α-hydroxy-5α-androstan-3,17-dione]	58 ± 1 µM	68 ± 1.2 µM	16.7 ± 2.6 µM	42.8 ± 1.2 µM	> 150 µM	68.1 ± 1.2 µM	230 to 234 °C	–	–	–	–
C[C@@H]1C[C@@]2(C)[C@@H](CC[C@@H]3[C@@H]2CC[C@]2(C)[C@@H](O)CC[C@@H]32)C[C@@H]1O [Compound 4, 2α-methyl-3α,17β-dihydroxy-5α-androstane]	49.5 ± 2.2 µM	60.4 ± 0.9 µM	12.4 ± 2.3 µM	80.9 ± 1.6 µM	> 150 µM	–	242 to 245 °C	–	–	–	–
CC1=C[C@@]2(C)C(=CC1=O)CC[C@@H]1[C@@H]2CC[C@]2(C)C(=O)CC[C@@H]12 [Compound 5, 2-methylandrosta-1,4-diene-3,17-dione]	39.8 ± 1.5 µM	84 ± 3.1 µM	–	30.4 ± 1.6 µM	> 150 µM	–	198 to 202 °C	–	–	–	–
CC1=C[C@@]2(C)C(=CC1=O)CC[C@@H]1[C@@H]2[C@H](O)C[C@]2(C)C(=O)CC[C@@H]12 [Compound 6, 2-methylandrosta-11α-hydroxy-1,4-diene-3,17-dione]	40.7 ± 0.9 µM	58.4 ± 1.6 µM	33.2 ± 1 µM	45.9 ± 4.2 µM	> 150 µM	–	230 to 234 °C	–	–	–	–
CC1=C[C@@]2(C)C(=CC1=O)CC[C@@H]1[C@@H]2CC[C@]2(C)C(=O)CC[C@@]12O [Compound 7, 2-methylandrosta-14α-hydroxy-1,4-diene-3,17-dione]	43.9 ± 2.4 µM	59.1 ± 2.6 µM	38.5 ± 2.8 µM	46.6 ± 3 µM	> 150 µM	–	224 to 228 °C	–	–	–	–
CC1=C[C@@]2(C)[C@H](CC1=O)C[C@@H](O)[C@@H]1[C@@H]2CC[C@]2(C)C(=O)CC[C@@H]12 [Compound 8, 2-methylandrosta-7α-hydroxy-1-ene-3,17-dione]	19.6 ± 1.4 µM	51.8 ± 3.4 µM	26.4 ± 0.9 µM	55 ± 1.9 µM	74.6 ± 3.7 µM	–	250 to 256 °C	–	–	–	–
C[C@@H]1C[C@@]2(C)[C@@H](CC[C@@H]3[C@@H]2CC[C@]2(C)[C@@H](O)CC[C@@H]32)CC1=O [Compound 9, 2α -methyl-5α-androstane-17β-hydroxy-3-one]	25.1 ± 1.6 µM	57.8 ± 3.2 µM	31.8 ± 1.2 µM	2.8 ± 0.2 µM	62.1 ± 1.2 µM	–	–	–	–	–	–
N.N.[Cl][Pt][Cl] [cisplatin, reference compound]	–	–	–	–	–	76.5 ± 1.2 µM	–	40.1 ± 2 µM	22.2 ± 2.1 µM	11.2 ± 3.03 µM	42.7 ± 0.8 µM
